Laboratory results as given in ChEMBL document CHEMBL1201862, “PubChem BioAssay data set” (2004).
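1) Cells in 96-well plates. 2) Compound, 48 h, 5 concentrations. 3) Linear interpolation between surrounding doses. 4) Unreached endpoint = highest concentration. GI50 = concentration required for 50% inhibition of growth.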 The source made the active and inactive calls. No stated cut-off is given here; in the data, active = GI50 up to about 1.1 µM and inactive = higher.

Tests used:
Experiment in all cases: inhibition of tumour cell growth, NCI panel, 48 h
786-0 = test system: 786-0
A549 = test system: A549
CAKI-1 = test system: CAKI-1
COLO 205 = test system: COLO 205
DU-145 = test system: DU-145
HCT-116 = test system: HCT-116
HOP-92 = test system: HOP-92
LOX IMVI = test system: LOX IMVI
MDA-N = test system: MDA-N
NCI-H23 = test system: NCI-H23
NCI-H522 = test system: NCI-H522
NCI/ADR-RES = test system: NCI/ADR-RES
OVCAR-3 = test system: OVCAR-3
OVCAR-4 = test system: OVCAR-4
PC-3 = test system: PC-3
SF-295 = test system: SF-295
SK-OV-3 = test system: SK-OV-3
SN12C = test system: SN12C
UO-31 = test system: UO-31
LXFL 529 = test system: LXFL 529

Measured: GI50

COc1ccc(/C=C2\C(=O)NC(=O)c3ccccc32)cc1OC
inactive: 786-0 16.8 µM | A549 48.2 µM | CAKI-1 26.7 µM | COLO 205 50.4 µM | DU-145 > 100 µM | HCT-116 6.78 µM | HOP-92 7.96 µM | LOX IMVI 10.5 µM | MDA-N > 43.6 µM | NCI-H23 49.8 µM | NCI-H522 16.2 µM | NCI/ADR-RES 42.2 µM | OVCAR-3 7.48 µM | OVCAR-4 34.6 µM | PC-3 45.2 µM | SF-295 52.2 µM | SK-OV-3 36.3 µM | SN12C 42.3 µM | UO-31 29.9 µM

CCCN(CCCC(NC(C)=O)C(=O)NCc1ccccc1)C(=O)NCCCl (stereo not drawn)
inactive: 786-0 > 100 µM | A549 > 100 µM | CAKI-1 > 100 µM | COLO 205 > 100 µM | HCT-116 > 100 µM | HOP-92 > 100 µM | LXFL 529 > 100 µM | NCI-H23 > 100 µM | NCI-H522 > 100 µM | OVCAR-3 > 100 µM | OVCAR-4 > 100 µM | SF-295 > 100 µM | SN12C > 100 µM | UO-31 > 100 µM

O=C(O)CC(Nc1ccccc1)C(=O)O (stereo not drawn)
inactive: 786-0 > 100 µM | A549 > 100 µM | CAKI-1 > 100 µM | COLO 205 > 100 µM | DU-145 > 100 µM | HCT-116 > 100 µM | HOP-92 > 100 µM | LOX IMVI > 100 µM | MDA-N > 100 µM | NCI-H23 > 100 µM | NCI-H522 > 100 µM | NCI/ADR-RES > 100 µM | OVCAR-3 > 100 µM | OVCAR-4 > 100 µM | PC-3 > 100 µM | SF-295 > 100 µM | SK-OV-3 > 100 µM | SN12C > 100 µM | UO-31 > 100 µM

O=C(Cc1cc[n+]([O-])cc1)C(=O)Nc1cc(Cl)c(Cl)cc1Cl
inactive: 786-0 > 100 µM | A549 > 100 µM | COLO 205 > 100 µM | HCT-116 > 100 µM | HOP-92 38.3 µM | LXFL 529 > 100 µM | NCI-H23 > 100 µM | NCI-H522 > 100 µM | OVCAR-3 > 100 µM | OVCAR-4 > 100 µM | SF-295 > 100 µM | SK-OV-3 > 100 µM | UO-31 > 100 µM

Cc1ccc(S(=O)(=O)N/N=C2/C3CC4CCC2C4C3)cc1 (stereo not drawn)
inactive: 786-0 > 100 µM | A549 > 100 µM | CAKI-1 > 100 µM | COLO 205 > 100 µM | DU-145 > 100 µM | HCT-116 > 100 µM | HOP-92 > 100 µM | LOX IMVI > 100 µM | MDA-N > 100 µM | NCI-H23 > 100 µM | NCI-H522 > 100 µM | NCI/ADR-RES > 100 µM | OVCAR-3 > 100 µM | OVCAR-4 > 100 µM | PC-3 > 100 µM | SF-295 > 100 µM | SK-OV-3 > 100 µM | SN12C > 100 µM | UO-31 > 100 µM

Cc1ccccc1/N=N/C(C(=O)c1ccccc1)C(=O)c1ccccc1
inactive: 786-0 25.4 µM | A549 24.9 µM | CAKI-1 34.1 µM | COLO 205 33.7 µM | HCT-116 16.1 µM | HOP-92 17.9 µM | LXFL 529 13.1 µM | NCI-H23 18.3 µM | NCI-H522 15.7 µM | OVCAR-3 24.9 µM | OVCAR-4 18.7 µM | SF-295 23.8 µM | SK-OV-3 41.6 µM | SN12C 20 µM | UO-31 17.2 µM

CCCNC1=C(C(=O)OCC)C(=O)CO1
inactive: 786-0 > 100 µM | A549 > 100 µM | CAKI-1 > 100 µM | HCT-116 > 100 µM | HOP-92 > 100 µM | LOX IMVI > 100 µM | LXFL 529 > 100 µM | NCI-H23 > 100 µM | OVCAR-3 > 100 µM | OVCAR-4 > 100 µM | SF-295 > 100 µM | SN12C > 100 µM | UO-31 > 100 µM

CSc1nc2c3ccccc3ccn2c1C(=O)N/N=C/c1ccccc1
inactive: 786-0 15.5 µM | A549 56.9 µM | CAKI-1 14.9 µM | COLO 205 > 73.6 µM | DU-145 > 74.6 µM | HCT-116 15.5 µM | HOP-92 1.65 µM | LOX IMVI > 100 µM | MDA-N 97.3 µM | NCI-H23 30.2 µM | NCI-H522 > 94.4 µM | NCI/ADR-RES 28.9 µM | OVCAR-3 17.9 µM | OVCAR-4 14.1 µM | PC-3 > 100 µM | SF-295 24 µM | SK-OV-3 19.6 µM | SN12C 28.1 µM | UO-31 21.8 µM

Cc1ccc2c(sc(-c3ccc4c(c3)sc(-c3ccc(N(C)C)cc3)[n+]4C)[n+]2C)c1S(=O)(=O)O.Cc1ccc2c(sc(-c3ccc4c(c3)sc(-c3ccc5c(c3)sc(-c3ccc(N(C)C)cc3)[n+]5C)[n+]4C)[n+]2C)c1S(=O)(=O)O
inactive: 786-0 > 100 µM | A549 > 100 µM | CAKI-1 10 µM | COLO 205 > 100 µM | DU-145 > 100 µM | HCT-116 > 100 µM | HOP-92 > 100 µM | LOX IMVI > 100 µM | MDA-N > 100 µM | NCI-H23 > 100 µM | NCI-H522 30.4 µM | NCI/ADR-RES > 100 µM | OVCAR-3 > 100 µM | OVCAR-4 43 µM | PC-3 > 100 µM | SF-295 > 100 µM | SK-OV-3 > 100 µM | SN12C > 100 µM | UO-31 > 100 µM

CC(=O)OC1CC2C(C)(C)C(=O)C=C[C@]2(C)C2CCC3(C)C(=CC(=O)C3c3ccoc3)[C@]12C (stereo partly drawn)
inactive: 786-0 15.5 µM | A549 15.1 µM | CAKI-1 24.7 µM | COLO 205 16.9 µM | HCT-116 11.6 µM | HOP-92 19.9 µM | LOX IMVI 14.8 µM | LXFL 529 24 µM | NCI-H23 12.7 µM | OVCAR-3 11.5 µM | OVCAR-4 18.4 µM | SF-295 15.2 µM | SK-OV-3 20.7 µM | SN12C 16.7 µM | UO-31 18.9 µM

COCC1N=C(c2cc(OC)c(OC)c(OC)c2-c2cc3c(cc2[C@H](C)O)OCO3)O[C@H]1c1ccccc1 (stereo partly drawn)
inactive: 786-0 > 100 µM | A549 56.8 µM | COLO 205 30.1 µM | HCT-116 44.6 µM | HOP-92 27.2 µM | LOX IMVI 63.2 µM | LXFL 529 37.7 µM | NCI-H23 87.7 µM | OVCAR-3 47.4 µM | OVCAR-4 33.5 µM | SF-295 48.2 µM | SK-OV-3 > 100 µM | SN12C 46.5 µM | UO-31 58.6 µM

Oc1ccccc1C(Sc1nc2ccccc2s1)Sc1nc2ccccc2s1
inactive: 786-0 > 100 µM | A549 > 100 µM | CAKI-1 34.4 µM | COLO 205 52.4 µM | DU-145 24.2 µM | HCT-116 > 100 µM | HOP-92 22.8 µM | LOX IMVI 67.5 µM | MDA-N > 100 µM | NCI-H23 58.7 µM | NCI-H522 17.6 µM | NCI/ADR-RES 57.8 µM | OVCAR-3 31.3 µM | OVCAR-4 76.4 µM | PC-3 67.1 µM | SF-295 41.6 µM | SK-OV-3 > 100 µM | SN12C > 100 µM | UO-31 6.55 µM
